{"source": "patent US7693320B2", "about": "“Three time point lung cancer detection, diagnosis and assessment of prognosis” (Yeda Research and Development Co. Ltd., priority 2004, dated 2010)", "key": {"[1]": {"parameters": "species or system patients", "conditions": "human, in vivo, iv", "excerpt": "For example, in a CT application, HU units (Hounsfield Units) measuring signal intensity S(t) are converted to Ultravist 300 concentration units (ml ultravist 300 solution/liter saline). The relationship between the measured signal intensity S(t) in HU and the concentration C(t) of contrast material (in ml per l) is described by: S(t)=p+qC(t) (1) where p and q are parameters to be determined.\nEnhancement, E(t), is defined as the difference in signal intensities before and after contrast material injection: E(t)=S(t)−S(t0)=q[C(t)−C(t0)] (2)\nThe experimental factor that converts HU units to contrast material concentration units can be determined by preparing tubes with different concentrations of Ultravist 300 in normal saline. The tubes can then be scanned by the CT.\nFor example, for prepared concentrations, C (in ml Ultravist 300 per 1 saline), may be in the range of 0 to 2% (20 ml per l) which is approximately the concentration in the blood after the injection. […] (The dose of 1.5 ml/kg in a 70 kg patient corresponds to ˜20 ml/l, about 2% in blood.)\nThe contrast agent for the CT was Iopromide (Ultravist 300; Schering) at a dose of 1.5 ml/kg, delivered through the antecubital vein at a rate of 3 ml/sec using an automatic injector (EnVision CT™). The patients were instructed to hold their breath following maximal expiration during the scanning, to decrease movement.\nFor each patient, the inventors recorded the signal intensity, S, of a central ROI in the aorta before contrast administration and at a selected time point after contrast injection. The inventors in the research study used the relation between HU and concentration units of Ultravist 300 (see above) to convert the measured enhancement to the corresponding concentration in the aorta, Cp(t), assuming similar pharmacokinetics for all patients with normal kidney function. Cp(t) in ml contrast agent per liter blood was fitted to the equation: Cp(t)=D(a1e^−m1^t+a2e^−m2^t) D=dose in ml/kg […] Eq. 3. to obtain: a1=8.48 kg/l, a2=7.34 kg/l, m1=1.43 min^−1, m2=0.1 min^−1.\nFIG. 2 illustrates enhancement (as defined in Eq. 2) in the aorta as a function of time after Iopromide (ultravist 300) injection at a dose of 0.15 ml/kg. The decay in the enhancement followed eq. 3 using the concentration to enhancement conversion (equation 2)."}, "[2]": {"conditions": "cited from earlier work"}}, "data": [{"smiles": "COCC(=O)Nc1c(I)c(C(=O)NCC(O)CO)c(I)c(C(=O)N(C)CC(O)CO)c1I", "note": "(stereo not shown) [Iopromide]", "values": [{"measurement": "a1 (amplitude of Cp(t)=D(a1e^-m1t+a2e^-m2t))", "setting": "[1]", "value": 8.48, "unit": "kg/L"}, {"measurement": "a2 (amplitude of Cp(t)=D(a1e^-m1t+a2e^-m2t))", "setting": "[1]", "value": 7.34, "unit": "kg/L"}, {"measurement": "m1 (decay rate constant of Cp(t))", "setting": "[1]", "value": 1.43, "unit": "min⁻¹"}, {"measurement": "m2 (decay rate constant of Cp(t))", "setting": "[1]", "value": 0.1, "unit": "min⁻¹"}, {"measurement": "fraction of the dosage excreted in feces", "setting": "[2]; following IV administration", "value": 1.5, "unit": "%"}, {"measurement": "half-life of distribution in the extracellular space", "setting": "[2]; following IV administration", "value": 3, "unit": "min"}, {"measurement": "elimination half-life", "setting": "[2]; patients of normal kidney function, irrespective of the dose", "value": "~2", "unit": "h"}]}]}
